Laboratory results published in patent EP0091208A1, “Method for combating insect pests, and novel cyclopropane carboxylates useful as active ingredients therein” (IMPERIAL CHEMICAL INDUSTRIES PLC, priority 1982, dated 1983).
Values after ≈ are worked out from the molar mass of the structure shown.

Key:
[1] = tested on: Musca domestica (houseflies - adults); assay: Insecticidal mortality test, contact, houseflies; assay type: in vivo; settings: cotton wool/milk, sugar, 1 day
Method: (§1) The activity of the compound was determined using a variety of insect pests. The compound was used in the form of liquid preparations containing 100, 50, 25, 10 or […] p.p.m. by weight of the compound. The preparations were made by dissolving the compound in a mixture of solvents consisting of 4 parts by volume of acetone and 1 part by volume of diacetone alcohol. The solutions were then diluted with water containing 0.01% by weight of a wetting agent sold under the trade name "LISSAPOL" NX until the liquid preparations contained the required concentration of the compound. "Lissapol" is a Trade Mark.
(§2) The test procedure adopted with regard to each pest was basically the same and comprised supporting a number of the pests on a medium which was usually a host plant or a foodstuff on which the pests feed, and treating either or both the pests and the medium with the preparations. The mortality of the pests was then assessed at periods usually varying from one to three days after the treatment.
(§3) The results of the tests are given in Table IIB for each of the products A to H at the rate in parts per million given in the second column as a grading of mortality on a scale of 0-9 wherein
(§4) In Table IIB the pest organism used is designated by a letter code and the pest species, the support medium or food, and the type and duration of test is given in Table IIA.

[2] = tested on: Spodoptera littoralis (cotton leaf worm - larvae); assay: Insecticidal mortality test, contact/residual, cotton leaf worm; assay type: in vivo; settings: cabbage leaves, 3 days
Method: as §1, §2, §3, §4

[3] = tested on: Plutella xylostella (diamond back moth - larvae); assay: Insecticidal mortality test, residual, diamond back moth; assay type: in vivo; settings: cabbage leaves, 3 days
Method: as §1, §2, §3, §4

Aphis fabae (aphids) = assay: Insecticidal mortality test, contact, aphids; assay type: in vivo; settings: French beans, 2 days
Method: as §1, §2, §3, §4

[4] = tested on: Diabrotica balteata (rootworm - larvae); assay: Insecticidal mortality test, contact, rootworm; assay type: in vivo; settings: filter paper, 3 days
Method: as §1, §2, §3, §4

[5] = Fish toxicity, young trout; settings: in vivo
Text: (§5) This Example illustrates the improved safety to fish of the compounds for use in the method of the invention compared with known compounds of similar chemical type. Table III sets out the LC50 values for young trout and carp in parts per million for the compounds for use in the method of this invention and parts per billion for the known (reference) compounds.

[6] = Fish toxicity, young carp; settings: in vivo
Text: as §5

SMILES	grading of mortality MD ([1]; rate 10 ppm)	grading of mortality MD ([1]; rate 100 ppm)	grading of mortality SL ([2]; rate 10 ppm)	grading of mortality SL ([2]; rate 100 ppm)	grading of mortality PX ([3]; rate 10 ppm)	grading of mortality PX ([3]; rate 100 ppm)	grading of mortality AF (Aphis fabae (aphids); rate 10 ppm)	grading of mortality AF (Aphis fabae (aphids); rate 100 ppm)	grading of mortality DB ([4]; rate 10 ppm)	grading of mortality DB ([4]; rate 100 ppm)	LC50 ([5]; compounds of the invention)	other results
CC1(C)[C@H](C(=O)OCc2cccc(Oc3ccc(Cl)cc3)c2)[C@@H]1/C=C(\Cl)C(F)(F)F (racemic) [Compound 5, (+)-3-(4-chlorophenoxy)benzyl (+)-cis-3-(Z-2-chloro-3,3,3-trifluoroprop-l-en-yl)-2,2-dimethylcyclopropane carboxylate]	1 (from 10 to 19%)	9 (90 to 100%)	9 (90 to 100%)	9 (90 to 100%)	0 (less than 10% mortality)	9 (90 to 100%)	9 (90 to 100%)	9 (90 to 100%)	3 (30 to 39%)	5 (50 to 59%)	10 µg/mL (≈ 21.8 µM)	
CC1(C)[C@H](/C=C(\Cl)C(F)(F)F)[C@@H]1C(=O)OC(C#N)c1cccc(Oc2ccc(Br)cc2)c1 (mixture of isomers) [Compound 6, (+)-α-cyano-3-(4-bromophenoxy)benzyl (+)-cis-3-(Z-2-chloro-3,3,3-trifluoroprop-1-en-1-yl)-2,2-dimethylcyclopropane carboxylate]	6 (60 to 69%)	9 (90 to 100%)	9 (90 to 100%)	9 (90 to 100%)	6 (60 to 69%)	7 (70 to 79%)	9 (90 to 100%)	9 (90 to 100%)	3 (30 to 39%)	5 (50 to 59%)		LC50 ([6]; compounds of the invention): 10 µg/mL (≈ 18.9 µM)
CC1(C)[C@H](/C=C(\Cl)C(F)(F)F)[C@@H]1C(=O)OC(C#N)c1cccc(Oc2ccc(F)cc2)c1 (mixture of isomers) [Compound 7, (+)-α-cyano-3-(4-fluorophenoxy)benzyl (+)-cis-3-(Z-2-chloro-3,3,3-trifluoroprop-1-en-1-yl)-2,2-dimethylcyclopropane carboxylate]	0 (less than 10% mortality)	0 (less than 10% mortality)	9 (90 to 100%)	9 (90 to 100%)	9 (90 to 100%)	9 (90 to 100%)	9 (90 to 100%)	9 (90 to 100%)	5 (50 to 59%)	9 (90 to 100%)	1 µg/mL (≈ 2.14 µM)	
CC1(C)C(/C=C(\Cl)C(F)(F)F)C1C(=O)OC(C#N)c1cccc(Oc2ccccc2)c1 (racemic) [Cyhalothrin, (±)-α-cyano-3-phenoxybenzyl (±)-cis-3-(Z-2-chloro-3,3,3-trifluoroprop-1-en-1-yl)-2,2-dimethylcyclopropane carboxylate, reference compound]												LC50 ([5]; known (reference) compounds): 0.00073 µg/mL (≈ 0.00162 µM); LC50 ([6]; known (reference) compounds): 0.00134 µg/mL (≈ 0.00298 µM)
CC1(C)C(C=C(Cl)Cl)C1C(=O)OC(C#N)c1cccc(Oc2ccccc2)c1 (racemic) [Cypermethrin, (±)-α-cyano-3-phenoxybenzyl (±)-cis/trans-3-(2,2-dichlorovinyl)-2,2-dimethylcyclopropane carboxylate, reference compound]												LC50 ([5]; known (reference) compounds): ~0.002 µg/mL (≈ 0.0048 µM)
CC1(C)[C@H](C(=O)OC(C#N)c2cccc(Oc3ccc(Cl)cc3)c2)[C@@H]1/C=C(\Cl)C(F)(F)F (stereo partly drawn) [Compound 1, (+)-χ-cyano-3-(4-chlorophenoxy)benzyl (+)-cis-3-(Z-2-chloro-3,3,3-trifluoroprop-l-en-l-yl)-2,2-dimethylcyclopropane carboxylate]		9 (90 to 100%)		9 (90 to 100%)		9 (90 to 100%)		9 (90 to 100%)		9 (90 to 100%)	20 µg/mL (≈ 41.3 µM)	grading of mortality MD ([1]; rate 12 ppm): 9 (90 to 100%); grading of mortality MD ([1]; rate 25 ppm): 9 (90 to 100%); grading of mortality MD ([1]; rate 50 ppm): 9 (90 to 100%); grading of mortality SL ([2]; rate 12 ppm): 0 (less than 10% mortality); grading of mortality SL ([2]; rate 25 ppm): 0 (less than 10% mortality); grading of mortality SL ([2]; rate 50 ppm): 9 (90 to 100%); grading of mortality PX ([3]; rate 12 ppm): 2 (20 to 29%); grading of mortality PX ([3]; rate 25 ppm): 7 (70 to 79%); grading of mortality PX ([3]; rate 50 ppm): 9 (90 to 100%); grading of mortality AF (Aphis fabae (aphids); rate 12 ppm): 9 (90 to 100%); grading of mortality AF (Aphis fabae (aphids); rate 25 ppm): 9 (90 to 100%); grading of mortality AF (Aphis fabae (aphids); rate 50 ppm): 9 (90 to 100%); grading of mortality DB ([4]; rate 12 ppm): 0 (less than 10% mortality); grading of mortality DB ([4]; rate 25 ppm): 0 (less than 10% mortality); grading of mortality DB ([4]; rate 50 ppm): 9 (90 to 100%)
CC1(C)[C@H](/C=C(\Cl)C(F)(F)F)[C@H]1C(=O)OC(C#N)c1cccc(Oc2ccc(Cl)cc2)c1 (stereo partly drawn) [Compound 8, (+)-α-cyano-3-(4-chlorophenoxy)benzyl (+)-trans-3-(Z-2-chloro-3,3,3-trifluoroprop-l-en-yl)-2,2-dimethylcyclopropane carboxylate]	9 (90 to 100%)	9 (90 to 100%)	9 (90 to 100%)	9 (90 to 100%)	8 (80 to 89%)	9 (90 to 100%)	9 (90 to 100%)	9 (90 to 100%)	0 (less than 10% mortality)	5 (50 to 59%)		
